One data set concerns the target T1, IKZF1 (Homo sapiens, UniProt Q13422+Q96SW2).
T1 construct: NCI-H929 cells were inoculated into a 96-well plate at 100,000 cells per well and cultured overnight; endogenous in cells; host or cells: NCI-H929
Briefly: Protein degradation assay (In-Cell Western), IKZF1. The note with it: NCI-H929 cells, 24 hours. The class given is cell-based. The method, then: (§1) NCI-H929 cells were inoculated into a 96-well plate at 100,000 cells per well and cultured overnight. Compounds at concentrations of 1600 nM, 400 nM, 100 nM, 25 nM, 6.25 nM, 1.56 nM, 0.39 nM, and 0.1 nM were dosed with duplicate wells, and the cells were incubated in an incubator at 37° C. for 24 hours. After the incubation, the supernatant was removed by centrifugation, and 150 μL of 4% paraformaldehyde was added. The cells were incubated at room temperature for 20 minutes, then, 200 μL of a washing solution (0.1% TritonX-100, Beyotime; ST1722) was added and incubated at room temperature on a shaker. After repeating the washing four times, 150 μL of a Licor INTERCEPT blocking solution (Lico, Cat No. 927-70001) was added, and the cells were incubated on a shaker at room temperature for 1.5 hours. Antibodies IKZF1 (Cell Signaling; Cat No. 14859S), IKZF3 (Cell Signaling; Cat No. 15103S), GSPT1 (Proteintech, Cat No. 10763-1-AP), CK1a (Thermo; 7117067), and SALL4 (Abcam, ab22675) were diluted with an antibody dilution solution (Intercept Blocking Buffer, LI-COR, 211114) at 1:100 and 50 μL of each diluted primary antibody was added into the 96-well plate. The cells were incubated overnight on a shaker at 4° C. After the primary antibodies were removed and repeated washing was performed with PBST for 4 times, 50 μL of a diluted secondary antibody (Licor, Cat No. 926-68070) was added, and IRDye 800CW and IRDye 680CW were added at 0.5 μL simultaneously. The secondary antibody was sucked away, PBST was added, repeated washing was performed on a shaker at room temperature for 4 times, and a signal intensity was detected using an infrared laser imaging system (Lico, Odyssey-CLx).

A further data set concerns the target T2, CRBN (Homo sapiens, UniProt Q96SW2).
T2 construct: purchased Cisbio 64BDCRBNPEG
Briefly: CRBN binding assay (HTRF competition). The source says:
Bonding activity between CRBN and compounds were detected by the HTRF competition assay using a CRBN binding kit (Cisbio, 64BDCRBNPEG). First, a reagent in the kit was equilibrated to room temperature and diluted to 1 fold with double-distilled water, and both the reagent and samples were uniformly mixed by thorough vortexing for later use. An europium-labeled specific GST antibody and an XL665-labeled thalidomide-red reagent (Cisbio, Cat No. 64BDCRBNPEG) were mixed in equal volumes in advance and then added into a 384-well white microplate at 10 μL per well. […] After uniform mixing, contents in the 384-well plate were sealed and incubated in the dark at room temperature for 3 hours.

For a further data set, the target named is T3, IKZF3 (Homo sapiens, UniProt Q96SW2+Q9UKT9).
T3 construct: endogenous in cells; host or cells: NCI-H929
Briefly: Protein degradation assay (In-Cell Western), IKZF3. Type of data set: cell-based. The note with it: NCI-H929 cells, 24 hours. On the procedure:
as §1

The test system of data set [1] is NCI-H929 multiple myeloma cells. Briefly: Cell Titer-GLO (CTG) assay for proliferation of NCI-H929 cells. Type of data set: cell-based. As to conditions: Homo sapiens, 72 hours. In a few lines: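 NCI-H929 cells, 5000/well, treated next day with compound from 0.00512 to 400 nM (5-fold steps, duplicates) for 72 h at 37° C. Viability by CellTiter-Glo luminescence, normalised to 0.1% DMSO and medium blank; IC50 and maximal inhibition from nonlinear dose-response regression.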

For data set [2] the following is noted: patients, literature; cited from earlier work.
The conditions of data set [3]: clinical phase I trial, combined with dexamethasone, RRMM patients; cited from earlier work.
The mark [4] stands for this setting: GST-labeled CRBN WT protein, thalidomide-red competition, 3 hours, read-out: HTRF CRBN IC50.

The source of these data is patent US20260272924A1, “ISOINDOLINE DERIVATIVE, BENZOINDOLE DERIVATIVE AND USE THEREOF” (SHANGHAI HELIOSON PHARMACEUTICAL CO., LTD., priority 2023, published 2026).

Like-named read-outs stand apart in the source and are kept apart here.

As to `O=C1CCC(N2C(=O)c3cccc4c(Cc5ccc(CN6CCN(c7ccnc(-n8cnc(C(F)(F)F)c8)n7)CC6)cc5)ccc2c34)C(=O)N1` (stereo not drawn) [Example 25, 3-(2-oxo-6-(4-((4-(2-(4-(trifluoromethyl)-1H-imidazol-1-yl)pyrimidin-4-yl)piperazin-1-yl)methyl)benzyl)benzo[cd]indol-1(2H)-yl)piperidin-2,6-dione], the DC50 amounted to 0.98 nM at IKZF1 and 0.075 nM at IKZF3. For the same molecule, the results for the Dmax on IKZF1 and at IKZF3 were 60% and 76.2%, respectively. Moreover, the half-inhibitory concentration (IC50) was found to be 38 nM on CRBN (setting [4]) and 0.04 nM in data set [1].

Consider `Nc1cccc2c1C(=O)N(C1CCC(=O)NC1=O)C2=O` (stereo not drawn) [pomalidomide], for which the “incidence rate of G3/G4 neutropenia” value in data set [2] was “approximately 50%”.

As to `Cc1nnc(-c2cccc(N3CCN(Cc4ccc(Cc5ccc6c7c(cccc57)C(=O)N6C5CCC(=O)NC5=O)cc4)CC3)n2)s1` (stereo not drawn) [Example 22, 3-(6-(4-((4-(6-(5-methyl-1,3,4-thiadiazol-2-yl)pyridin-2-yl)piperazin-1-vA)methyl)benzyl)-2-oxobenzo[cd]indol-1(2H)-yl)piperidin-2,6-dione], the results for the DC50 on IKZF1 and on IKZF3 were 0.1 nM and 0.056 nM, respectively. Moreover, the maximal degradation (Dmax) at IKZF1 amounted to 65.3%; at IKZF3, 76.4%. Also, the IC50 at CRBN (setting [4]) was found to be 20 nM; in data set [1] it was 0.02 nM.

Regarding `Cc1ncc(-c2nc(N3CCN(Cc4ccc(Cc5ccc6c7c(cccc57)C(=O)N6C5CCC(=O)NC5=O)cc4)CC3)cc(C(F)(F)F)n2)s1` (stereo not drawn) [Example 21, 3-(6-(4-((4-(2-(2-methylthiazol-5-yl)-6-(trifluoromethyl)pyrimidin-4-yl)piperazin-1-yl)methyl)benzyl)-2-oxobenzo[cd]indol-1(2H)-yl)piperidin-2,6-dione], the DC50 at IKZF1 was 8.86 nM; at IKZF3, 0.22 nM. The maximal degradation (Dmax) at IKZF1 stood at 57.1%; on IKZF3, 74.1%. Also, the IC50 at CRBN (setting [4]) stood at 34 nM; in data set [1], 0.2 nM.

Regarding `N#Cc1ccc(N2CCN(Cc3ccc(COc4cccc5c4CN([C@H]4CCC(=O)NC4=O)C5=O)cc3)CC2)c(F)c1` [CC-92480, reference compound], the “objective response rate (ORR)” value in data set [3] is 54.4%. Besides, the IC50 on CRBN was found to be 108 nM.

In the case of `Cc1ncn(-c2cccc(N3CCN(Cc4ccc(Cc5ccc6c7c(cccc57)C(=O)N6C5CCC(=O)NC5=O)cc4)CC3)n2)n1` (stereo not drawn) [Example 23, 3-(6-(4-((4-(6-(3-methyl-1H-1,2,4-triazol-1-yl)pyridin-2-yl)piperazin-1-yl)methyl)benzyl)-2-oxobenzo[cd]indol-1(2H)-yl)piperidin-2,6-dione], the 50% degradation concentration (DC50) at IKZF1 is 0.077 nM; at IKZF3 it was 0.036 nM. The Dmax on IKZF1 is 65.8%; at IKZF3, 77.1%. Besides, the IC50 came to 19 nM at CRBN (setting [4]) and 0.01 nM in data set [1].

For `Nc1cccc2c1CN(C1CCC(=O)NC1=O)C2=O` (stereo not drawn) [lenalidomide], the “incidence rate of G3/G4 neutropenia” value in data set [2] was “up to 35%”.

Consider `Cc1nc(N2CCN(Cc3ccc(Cc4ccc5c6c(cccc46)C(=O)N5[C@H]4CCC(=O)NC4=O)cc3)CC2)cc(-n2cnc(C(F)(F)F)c2)n1` [Example 30, (S)-3-(6-(4-((4-(2-methyl-6-(4-(trifluoromethyl)-1H-imidazol-1-yl)pyrimidin-4-yl)piperazin-1-yl)methyl)benzyl)-2-oxobenzo[cd]indol-1(2H)-yl)piperidin-2,6-dione], for which the DC50 turned out to be 0.37 nM at IKZF1 and 0.093 nM on IKZF3. Moreover, the Dmax was found to be 74.1% on IKZF1 and 73.2% at IKZF3. For the same molecule, the IC50 at CRBN (setting [4]) stood at 27 nM; in data set [1], 0.01 nM.

Consider `Cc1ncn(-c2cccc(N3CCN(Cc4ccc(Cc5ccc6c7c(cccc57)C(=O)N6[C@H]5CCC(=O)NC5=O)cc4)CC3)n2)n1` [Example 37, (S)-3-(6-(4-((4-(6-(3-methyl-1H-1,2,4-triazol-1-yl)pyridin-2-yl)piperazin-1-yl)methyl)benzyl)-2-oxobenzo[cd]indol-1(2H)-yl)piperidin-2,6-dione], for which the IC50 stood at 8 nM on CRBN (setting [4]) and 0.01 nM in data set [1].
